Assay [1] in a line: Antiviral activity against Influenza A virus (A/WSN/1933(H1N1)) assessed as virus-mediated cytopathic effect in MDCK cells after 48 to 72 hrs. It is filed as functional, cell-based. (Protection from cytopathic effect is a common read-out in antiviral testing.)
Assay [2] relates to MDCK. As to the kind of experiment: Inhibition of nucleoprotein synthesis in Influenza A virus (A/WSN/1933(H1N1)) infected in MDCK cells at 15.0 uM by immunofluorescence assay. It counts as functional, cell-based.
A further assay addresses Nucleoprotein (Influenza A virus (strain A/Wilson-Smith/1933 H1N1), UniProt P15682). The assay is described as follows: Binding affinity to Influenza A virus (A/WSN/1933(H1N1)) nucleoprotein transfected in 293T cells assessed as inhibition of RNA dependent RNA polymerase activity. It counts as cell-based.
In assay [3] the test system is MDCK. As to the kind of experiment: Inhibition of nucleoprotein synthesis in Influenza A virus (A/WSN/1933(H1N1)) infected in MDCK cells at 3.0 uM by immunofluorescence assay. It counts as functional, cell-based.
The test system of assay [4] is MDCK. The assay is described as follows: Inhibition of nucleoprotein synthesis in Influenza A virus (A/WSN/1933(H1N1)) infected in MDCK cells at 10.0 uM dosed post-infection by fluorescence analysis. It counts as functional, organism-based.
Assay [5] relates to MDCK. The assay is described as follows: Inhibition of nucleoprotein synthesis in Influenza A virus (A/WSN/1933(H1N1)) infected in MDCK cells by fluorescence analysis. It counts as functional, cell-based.
Assay [6] in a line: Antiviral activity against wild-type Influenza A virus (A/WSN/1933(H1N1)) assessed as virus-mediated cytopathic effect in MDCK cells. It is filed as functional, cell-based.
Assay [7] relates to MDCK. As to the kind of experiment: Inhibition of nucleoprotein synthesis in Influenza A virus (A/WSN/1933(H1N1)) infected in MDCK cells at 1.0 uM dosed 0.5 hrs post infection by fluorescence analysis. It counts as functional, organism-based.
For assay [8], the system named is MDCK. As to the kind of experiment: Antiviral activity against wild-type Influenza A virus (A/WSN/1933(H1N1)) assessed as virus-mediated cytopathic effect in MDCK cells at 0.3 uM. It counts as functional, cell-based.
Assay [9] deals with MDCK. As to the kind of experiment: Inhibition of nucleoprotein synthesis in Influenza A virus (A/WSN/1933(H1N1)) infected in MDCK cells at 0.3 uM dosed 0.5 hrs post infection by fluorescence analysis. It counts as functional, organism-based.
For assay [10], the system named is MDCK. The assay is described as follows: Inhibition of nucleoprotein synthesis in Influenza A virus (A/WSN/1933(H1N1)) infected in MDCK cells at 0.3 and 1 uM dosed > 0.5 hrs post infection by fluorescence analysis. It is filed as functional, organism-based.

The term EC50 denotes the concentration needed to bring the measured effect to its halfway point. In general, IC50 refers to the concentration that gives 50% inhibition.

The structures appear in SMILES notation. Active and inactive are the calls of the source. The rule behind the calls is not given here.

Sequence of Nucleoprotein (P15682 whole entry): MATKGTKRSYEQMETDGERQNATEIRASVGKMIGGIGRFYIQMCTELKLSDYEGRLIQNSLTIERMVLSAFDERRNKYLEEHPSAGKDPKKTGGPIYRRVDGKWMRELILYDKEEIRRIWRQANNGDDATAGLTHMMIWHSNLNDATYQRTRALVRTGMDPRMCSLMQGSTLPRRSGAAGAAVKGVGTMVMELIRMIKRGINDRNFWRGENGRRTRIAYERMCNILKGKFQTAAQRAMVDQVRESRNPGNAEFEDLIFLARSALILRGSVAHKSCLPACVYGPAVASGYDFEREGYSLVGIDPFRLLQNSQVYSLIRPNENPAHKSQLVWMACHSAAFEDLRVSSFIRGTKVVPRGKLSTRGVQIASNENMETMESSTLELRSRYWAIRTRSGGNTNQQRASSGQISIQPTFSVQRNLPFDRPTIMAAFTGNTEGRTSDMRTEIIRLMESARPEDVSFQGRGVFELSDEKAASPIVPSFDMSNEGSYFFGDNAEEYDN

Regarding `Cn1c(=O)c2c(-c3ccccc3)n3c(c2n(C)c1=O)C(C1CCCCC1)OCC3(C)C` (centres undefined), the EC50 in [1] is > 50 µM.

As for `Cn1c(=O)c2c(-c3ccccc3)n3c(c2n(C)c1=O)C(c1ccccc1Cl)OCC3(C)C` (centres undefined), in assay [1], the EC50 was found to be 8 µM.

As to `COc1ccc(C2OCC(C)(C)n3c(-c4ccccc4)c4c(=O)n(C)c(=O)n(C)c4c32)cc1` (centres undefined), in [1], the EC50 is > 50 µM.

For `CCCn1c(=O)c2c(-c3ccccc3)n3c(c2n(CCC)c1=O)C(C1CCCCC1)OCC3` (centres undefined), the EC50 in assay [1] was > 50 µM.

Regarding `Cn1c(=O)c2c(-c3ccccc3)n3c(c2n(C)c1=O)C(c1ccccc1Cl)OCC3` (centres undefined), in assay [1], the EC50 is > 50 µM.

Consider `Cn1c(=O)c2c(-c3ccccc3)n3c(c2n(C)c1=O)C(c1ccc(Br)o1)OCC3` (centres undefined), for which the EC50 in assay [1] was > 50 µM.

For the molecule `Cn1c(=O)c2c(-c3ccccc3)n3c(c2n(C)c1=O)C(c1cccs1)OCC3` (centres undefined), in [1], the concentration for a half-maximal effect (EC50) is > 50 µM.

Take `Cn1c(=O)c2c(-c3ccccc3)n3c(c2n(C)c1=O)C(C1CCCCC1)OCC3` (centres undefined): the EC50 in assay [1] was > 50 µM.

For `Cn1c(=O)c2c(-c3ccccc3)n3c(c2n(C)c1=O)C(c1ccc(C(F)(F)F)cc1)OCC3(C)C` (centres undefined), the EC50 in assay [1] is > 50 µM.

As to `CCCC1OCCn2c(-c3ccccc3)c3c(=O)n(C)c(=O)n(C)c3c21` (centres undefined), the EC50 in assay [1] is > 50 µM.

Regarding `Cn1c(=O)c2c(-c3ccccc3)n3c(c2n(C)c1=O)C(c1ccccc1)OCC3(C)C` (centres undefined), the EC50 in [1] was found to be 5.4 µM.

Turning to `Cn1c(=O)c2c(-c3ccccc3)n3c(c2n(C)c1=O)C(c1ccccc1F)OCC3` (centres undefined), the EC50 in assay [1] is > 50 µM.

Take `Cn1c(=O)c2c(-c3ccccc3)n3c(c2n(C)c1=O)C(c1ccccc1F)OCC3(C)C` (centres undefined): the inhibition entry with MDCK [2] and in the assay on MDCK [4] was “Active” each time. Also, the EC50 in assay [1] amounted to 1 µM; in assay [6], 2.3 µM. Moreover, the IC50 at Nucleoprotein turned out to be 4.9 µM. Further, in the assay with MDCK [3], the inhibition entry is “inactive”. The inhibition entry in the assay on MDCK [5] (TDE = time-dependent effect) was “tde”.

Turning to `Cn1c(=O)c2c(-c3ccccc3)n3c(c2n(C)c1=O)C(c1cccs1)OCC3(C)C` (centres undefined), the EC50 in assay [1] was found to be 6.8 µM.

With `Cn1c(=O)c2c(-c3ccccc3)n3c(c2n(C)c1=O)C(c1ccccc1)OCC3` (centres undefined), the EC50 in assay [1] is > 50 µM.

Regarding `Cc1onc(-c2ccccc2Cl)c1C(=O)N1CCN(c2ccc([N+](=O)[O-])cc2)CC1`, the inhibition entry in the assay on MDCK [7], in the assay on MDCK [9] and in the assay on MDCK [5] was “Active” in each case. Moreover, the result with MDCK [8] was Active. Besides, the IC50 at Nucleoprotein was determined as 0.23 µM. In addition, the inhibition result in the assay with MDCK [10] is “inactive”.

For the molecule `Cn1c(=O)c2c(-c3ccccc3)n3c(c2n(C)c1=O)C(C1CCCC1)OCC3` (centres undefined), the EC50 in assay [1] is > 50 µM.

As to `Cn1c(=O)c2c(-c3ccccc3)n3c(c2n(C)c1=O)C(c1ccco1)OCC3` (centres undefined), the EC50 in [1] is > 50 µM.

These data come from ChEMBL document CHEMBL3616452 (Eur J Med Chem, 2015).
